According to US20180118708A1, “CYCLIC COMPOUND” (Takeda Pharmaceutical Company Limited, priority 2015, published 2018):

These compounds were tested against T1, TLR4 (Mus musculus, UniProt Q9QUK6) (assay: Inhibitory effect with respect to NO production (LPS/interferon γ stimulated RAW264.7 cells)). Conditions: test compound 100 nM, LPS 1.25 ng/mL + mouse interferon γ 0.2 ng/mL, nitrite ion in culture supernatant.
T1 construct: endogenous in cells; host or cells: RAW264.7 (murine macrophage cell line)
T1 sequence (Q9QUK6 26-835): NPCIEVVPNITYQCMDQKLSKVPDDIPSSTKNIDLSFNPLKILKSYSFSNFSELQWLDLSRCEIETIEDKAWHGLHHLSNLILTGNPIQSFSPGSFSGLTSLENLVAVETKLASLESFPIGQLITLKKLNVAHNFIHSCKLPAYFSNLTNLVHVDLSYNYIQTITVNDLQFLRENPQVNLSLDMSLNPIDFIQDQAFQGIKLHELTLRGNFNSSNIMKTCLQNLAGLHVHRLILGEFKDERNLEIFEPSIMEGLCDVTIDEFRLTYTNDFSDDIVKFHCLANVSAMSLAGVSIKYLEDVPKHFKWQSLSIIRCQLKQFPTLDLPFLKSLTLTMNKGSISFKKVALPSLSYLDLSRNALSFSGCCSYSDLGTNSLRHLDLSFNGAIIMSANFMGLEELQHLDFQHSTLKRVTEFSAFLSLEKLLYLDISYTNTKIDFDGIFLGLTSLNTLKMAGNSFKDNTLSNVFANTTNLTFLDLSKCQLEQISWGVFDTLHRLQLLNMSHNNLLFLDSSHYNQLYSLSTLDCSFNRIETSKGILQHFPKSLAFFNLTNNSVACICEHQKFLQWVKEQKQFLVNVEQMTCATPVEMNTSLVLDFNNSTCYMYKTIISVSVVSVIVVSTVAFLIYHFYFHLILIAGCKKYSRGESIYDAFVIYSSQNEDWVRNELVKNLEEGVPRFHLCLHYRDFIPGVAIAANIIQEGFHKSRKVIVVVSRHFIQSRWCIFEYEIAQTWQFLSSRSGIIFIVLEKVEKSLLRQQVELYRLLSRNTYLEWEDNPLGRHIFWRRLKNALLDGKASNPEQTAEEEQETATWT
T1 sequence (Q9JHF9 19-160 partner): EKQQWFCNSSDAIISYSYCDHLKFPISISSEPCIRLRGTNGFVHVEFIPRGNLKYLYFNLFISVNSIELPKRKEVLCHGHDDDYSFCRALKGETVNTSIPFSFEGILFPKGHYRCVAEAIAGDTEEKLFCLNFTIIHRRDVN
Format: cell-based, murine
Description: Inhibitory Effect With Respect to NO Production
The inhibitory effect on TLR4 was determined using the inhibition rate due to the test compound with respect to NO production as a result of addition of lipopolysaccharide (LPS) using murine macrophage cell line RAW264.7. The cells were adjusted to 2×10^6 cells/mL using RPM1-1640 culture medium (phenol red free) supplemented with 10% inactivated bovine fetal serum, and were plated on 384 well plate so as to contain 6×10^4 cells/30 μL per well. Thereafter the cells were cultured at 37° C. overnight under 5% CO2/95% air. The test compound dissolved in DMSO was diluted 200 times using RPM1-1640 culture medium and adjusted so as to form a compound concentration of 500 nM. The prepared test compound 10 μL (final concentration 100 nM) was added to the cells, and LPS (Sigma) and mouse interferon γ (Wako Pure Chemicals) were added in amounts of 10 μL so as to form final concentrations of 1.25 ng/mL and 0.2 ng/mL respectively. The cells were further cultured overnight, and then the nitrite ion (stable NO metabolite) concentration in the culture supernatant was measured as an index of NO production. The nitrite ion concentration was assayed by adding 10 μL of 20 μg/mL 2,3-diamino naphthalene (DAN) dissolved in 0.2N HCl to 20 μL culture supernatant, incubating at room temperature for ten minutes, and then adding 10 μL of 0.5N NaOH, and measuring the fluorescent value at 460 nm (excitation wavelength 355 nm) using an EnVision plate reader (Perkin Elmer). The NO production inhibition rate (%) was calculated using the value without the addition of stimulating agent as control of 100% inhibition, and the value without the addition of the compound as control of 0% inhibition.

Point of comparison: `CCOC(=O)C1=CC2(CCC1S(=O)(=O)Cc1ccc(F)cc1Cl)O[C@H](COC(C)=O)[C@@H](COC(C)=O)O2` (stereo partly drawn) [Compound 10, ethyl (2R,3R)-2,3-bis(acetoxymethyl)-8-((2-chloro-4-fluorobenzyl)sulfonyl)-1,4-dioxaspiro[4.5]dec-6-ene-7-carboxylate], “NO production inhibitory effect at 100 nM (% inhibition)” value 110 % inhibition. Against it:
- CCOC(=O)C1=CC2(CCC1S(=O)(=O)Cc1ccccc1Cl)O[C@@H](CO)[C@H](CO)O2 (stereo partly drawn) [Compound 23, ethyl (2S,3S)-8-((2-chlorobenzyl)sulfonyl)-2,3-bis(hydroxymethyl)-1,4-dioxaspiro[4.5]dec-6-ene-7-carboxylate] — lower, 100 % inhibition
- CCOC(=O)C1=CC2(CCC1S(=O)(=O)Cc1ccc(F)cc1Br)O[C@H](CO)[C@@H](CO)O2 (stereo partly drawn) [Compound 17, ethyl (2R,3R)-8-((2-bromo-4-fluorobenzyl)sulfonyl)-2,3-bis(hydroxymethyl)-1,4-dioxaspiro[4.5]dec-6-ene-7-carboxylate] — lower, 100 % inhibition
- C#CCCCCOC[C@@H]1COC2(C=C(C(=O)OCC)C(S(=O)(=O)Cc3ccc(F)cc3Cl)CC2)O1 (stereo partly drawn) [Compound 28, ethyl (2R)-8-((2-chloro-4-fluorobenzyl)sulfonyl)-2-((hex-5-yn-1-yloxy)methyl)-1,4-dioxaspiro[4.5]dec-6-ene-7-carboxylate] — lower, 94 % inhibition
- CCOC(=O)C1=CC2(CC[C@H]1S(=O)(=O)Cc1ccccc1Cl)O[C@H](CO)[C@@H](CO)O2 [Compound 31, ethyl (2R,3R,8R)-8-((2-chlorobenzyl)sulfonyl)-2,3-bis(hydroxymethyl)-1,4-dioxaspiro[4.5]dec-6-ene-7-carboxylate] — lower, 103 % inhibition
- CCOC(=O)C1=CC2(CCC1S(=O)(=O)Cc1ccc(F)cc1Cl)OC[C@H](CNC(=O)OCc1ccccc1)O2 (stereo partly drawn) [Compound 29, ethyl (2S)-2-((((benzyloxy)carbonyl)amino)methyl)-8-((2-chloro-4-fluorobenzyl)sulfonyl)-1,4-dioxaspiro[4.5]dec-6-ene-7-carboxylate] — lower, 86 % inhibition
- CCOC(=O)C1=CC2(CC[C@H]1S(=O)(=O)Cc1cccc(Cl)c1)O[C@H](CO)[C@@H](CO)O2 [Compound 30, ethyl (2R,3R,8R)-8-((3-chlorobenzyl)sulfonyl)-2,3-bis(hydroxymethyl)-1,4-dioxaspiro[4.5]dec-6-ene-7-carboxylate] — lower, 106 % inhibition
- CCOC(=O)C1=CC2(CCC1S(=O)(=O)Cc1ccc(F)c(Cl)c1)O[C@H](CO)[C@@H](CO)O2 (stereo partly drawn) [Compound 5, ethyl (2R,3R)-8-((3-chloro-4-fluorobenzyl)sulfonyl)-2,3-bis(hydroxymethyl)-1,4-dioxaspiro[4.5]dec-6-ene-7-carboxylate] — lower, 100 % inhibition
- CCOC(=O)C1=CC2(CCC1S(=O)(=O)Cc1cccc(OC)c1)O[C@H](CO)[C@@H](CO)O2 (stereo partly drawn) [Compound 13, ethyl (2R,3R)-2,3-bis(hydroxymethyl)-8-((3-methoxybenzyl)sulfonyl)-1,4-dioxaspiro[4.5]dec-6-ene-7-carboxylate] — lower, 100 % inhibition
- CCOC(=O)C1=CC2(CCC1S(=O)(=O)Cc1c(C)cccc1Cl)O[C@@H](CO)[C@H](CO)O2 (stereo partly drawn) [Compound 26, ethyl (2S,3S)-8-((2-chloro-6-methylbenzyl)sulfonyl)-2,3-bis(hydroxymethyl)-1,4-dioxaspiro[4.5]dec-6-ene-7-carboxylate] — the same, 110 % inhibition
- CCOC(=O)C1=CC2(CCC1S(=O)(=O)Cc1cc(Cl)ccc1F)O[C@H](CO)[C@@H](CO)O2 (stereo partly drawn) [Compound 4, ethyl (2R,3R)-8-((5-chloro-2-fluorobenzyl)sulfonyl)-2,3-bis(hydroxymethyl)-1,4-dioxaspiro[4.5]dec-6-ene-7-carboxylate] — lower, 100 % inhibition
- CCOC(=O)C1=CC2(CCC1S(=O)(=O)Cc1ccc(F)cc1Cl)O[C@H](C)[C@@H](C)O2 (stereo partly drawn) [Compound 18, ethyl (2R,3R)-8-((2-chloro-4-fluorobenzyl)sulfonyl)-2,3-dimethyl-1,4-dioxaspiro[4.5]dec-6-ene-7-carboxylate] — lower, 100 % inhibition
- CCOC(=O)C1=CC2(CCC1S(=O)(=O)Cc1ccc(F)cc1Cl)O[C@H](COC)[C@@H](COC)O2 (stereo partly drawn) [Compound 11, ethyl (2R,3R)-8-((2-chloro-4-fluorobenzyl)sulfonyl)-2,3-bis(methoxymethyl)-1,4-dioxaspiro[4.5]dec-6-ene-7-carboxylate] — the same, 110 % inhibition
- CCOC(=O)C1=CC2(CC[C@H]1S(=O)(=O)Cc1ccccc1Cl)O[C@@H](CO)[C@H](CO)O2 [Compound 32, ethyl (2S,3S,8R)-8-((2-chlorobenzyl)sulfonyl)-2,3-bis(hydroxymethyl)-1,4-dioxaspiro[4.5]dec-6-ene-7-carboxylate] — higher, 114 % inhibition
- CCOC(=O)C1=CC2(CCC1S(=O)(=O)Cc1cccc(C)c1)O[C@H](CO)[C@@H](CO)O2 (stereo partly drawn) [Compound 12, ethyl (2R,3R)-2,3-bis(hydroxymethyl)-8-((3-methylbenzyl)sulfonyl)-1,4-dioxaspiro[4.5]dec-6-ene-7-carboxylate] — lower, 100 % inhibition
- CCOC(=O)C1=CC2(CCC1S(=O)(=O)Cc1ccc(F)cc1Cl)OC[C@@H](CNC(=O)OC(C)(C)C)O2 (stereo partly drawn) [Compound 27, ethyl (2R)-2-(((tert-butoxycarbonyl)amino)methyl)-8-((2-chloro-4-fluorobenzyl)sulfonyl)-1,4-dioxaspiro[4.5]dec-6-ene-7-carboxylate] — lower, 98 % inhibition
- CCOC(=O)C1=CC2(CCC1S(=O)(=O)Cc1cc(F)ccc1Cl)O[C@H](CO)[C@@H](CO)O2 (stereo partly drawn) [Compound 21, ethyl (2R,3R)-8-((2-chloro-5-fluorobenzyl)sulfonyl)-2,3-bis(hydroxymethyl)-1,4-dioxaspiro[4.5]dec-6-ene-7-carboxylate] — lower, 100 % inhibition

Same assay, conditions: test compound 100 nM, LPS 1.25 ng/mL + mouse interferon γ 0.2 ng/mL, nitrite ion in culture supernatant, 0.1 µM

Point of comparison: `CCOC(=O)C1=CC2(CCC1S(=O)(=O)C(C)c1ccc(F)cc1Cl)O[C@H](CO)[C@@H](CO)O2` (single isomer, unassigned) [Compound 19], “NO production inhibitory effect at 100 nM (% inhibition)” value 110 % inhibition. Against it:
- CCOC(=O)C1=CC2(CCC1S(=O)(=O)C(C)c1ccc(F)cc1Cl)O[C@H](CO)[C@@H](CO)O2 (single isomer, unassigned) [Compound 20] — lower, 77 % inhibition
- CCOC(=O)C1=CC2(CCC1S(=O)(=O)Cc1ccc(F)cc1Cl)OC[C@@H](CO)O2 (stereo partly drawn) [Compound 9, ethyl (2R)-8-((2-chloro-4-fluorobenzyl)sulfonyl)-2-(hydroxymethyl)-1,4-dioxaspiro[4.5]dec-6-ene-7-carboxylate] — the same, 110 % inhibition
- CCOC(=O)C1=CC2(CCC1S(=O)(=O)Cc1ccc(F)cc1Cl)O[C@@H](CO)[C@H](CO)O2 (single isomer, unassigned) [Compound 6] — lower, 92 % inhibition
- CCOC(=O)C1=CC2(CCC1S(=O)(=O)Cc1ccc(F)cc1Cl)OC[C@@H](CO)O2 (stereo partly drawn) [Compound 8, ethyl (2R)-8-((2-chloro-4-fluorobenzyl)sulfonyl)-2-(hydroxymethyl)-1,4-dioxaspiro[4.5]dec-6-ene-7-carboxylate] — lower, 100 % inhibition
